The nature of this data set: Stability study according to ICH guidelines. The format is physicochemical.

Experimental: The total impurity content is measured after synthesis of the compound and compared with the measured total impurity content after storage for a designated period of time. […] Stability studies were conducted, according to the ICH guidelines, for 6 months at accelerated condition (40° C./75% RH) and at room temperature.

With `Cc1nc(Nc2ncc(C(=O)Nc3c(C)cccc3Cl)s2)cc(N2CCN(CCO)CC2)n1` [N-(2-chloro-6-methylphenyl)-2-[[6-[4-(2-hydroxyethyl)-1-piperazinyl]-2-methyl-4-pyrimidinyl]amino]-5-thiazolecarboxamide], for the setting “about 6 months at about 40° c. and about 75% RH”, the “total impurity content after storage” value was “less than 4%”. In addition, for the setting “at 0 days”, the total impurity content result is listed as “less than 3%”.

The values are drawn from US20220175774A1, “Bioavailable Oral Dosage Form Of Tyrosine-Kinase Inhibitor” (Alembic Pharmaceuticals Limited, priority 2020, published 2022).
